The values that follow come from US20260071117A1, “FUNABLE FLUORESCENT COMPOUNDS AND USES THEREOF” (Arizona Board of Regents on Behalf of the University of …, priority 2021, published 2026).

Several values for one entry are separate records, joined by “and”; a condition that tells them apart may be missing. Identical values can stand only once. Like-named read-outs stand apart in the source and are kept apart here.

A short description of data set [1]: Absorbance and fluorescence measurements (excitation maximum, emission maximum, quantum yield vs coumarin 151). The format is physicochemical. Details: key to Quantum Yield: fraction relative to coumarin 151 in ethanol standard. As to conditions: for λex: absorbance/excitation maximum; for λex / Quantum Yield / λem: measurements run with methanol; for Quantum Yield: coumarin 151 in ethanol as standard; for Quantum Yield / λem: 2.5 mm slit width; for λem: emission maximum. An excerpt: All reagents and solvents were acquired from commercially available suppliers and used without further purification. Methanol(dried on molecular sieves-Acroseal) was obtained from Acros. […] 1H and 13C NMR spectra were obtained on a Bruker NMR spectrometer at 500/400 and 125/100 MHz respectively. The data is reported as follows: chemical shift in ppm (δ), multiplicity (s=singlet, d=doublet, dd=doublet of doublets, t=triplet, dt=doublet of triplets, td=triplet of doublets, q=quartet, p=pentet, m=multiplet). Coupling constants are reported in Hertz (Hz) and were automatically generated using known NMR analyzer software (MestReNova), these were then subsequently curated. High-resolution mass spectra were obtained using the positive ESI method for all the compounds, obtained in an Ion Cyclotron Resonance (ICR) spectrometer. Absorbance spectra were obtained using an Agilent 8453 UV-visible spectroscopy system. Fluorescence was measured on a Varian (Agilent) Cary Eclipse Fluorimeter. Quantum yield measurements were calculated and reported using coumarin 151 in ethanol as a standard.^1 Fluorescence scans were obtained using a 2.5 mm slit width unless otherwise noted.
The fluorescence was also measured in different solvents to examine the solvent effects.

For data set [2] the following is noted: previously published amine, comparison in Example I; cited from earlier work.

In the case of `COc1cccc(-c2nc3c(nc4ccccn43)c3cc(OC)ccc23)c1` [Compound 16a, 2-methoxy-5-(3-methoxyphenyl)pyrido[2′,1′:2,3]imidazo[4,5-c]isoquinoline], in data set [1], the λex was determined as 361 nm, the “Quantum Yield” value is given as 0.05 and the λem came out at 417 nm. Besides, in data set [2], the Quantum Yield is 0.02, the emission maxima is given as 505 nm and the excitation maxima was 292 nm.
Regarding `COc1cc(OC)cc(-c2nc3cc(Br)ccn3c2N)c1` [Compound 10y, 7-bromo-2-(3,5-dimethoxyphenyl)imidazo[1,2-a]pyridin-3-amine], in data set [1], the λex is listed as 349 nm, the “Quantum Yield” value is listed as 0.01 and the λem is 487 nm.
Taken in the same sequence, the figures for `COC(=O)c1ccc2nc(-c3cc(OC)cc(OC)c3)c(N)n2c1` [Compound 10w, methyl 3-amino-2-(3,5-dimethoxyphenyl)imidazo[1,2-a]pyridine-6-carboxylate] were 343 nm, 0.02 and 473 nm.
In the case of `COc1cc(OC)c2c(-c3ccc([N+](=O)[O-])cc3)nc3c(nc4ccccn43)c2c1` [Compound 18b, 2,4-dimethoxy-5-(4-nitrophenyl)pyrido[2′,1′:2,3]imidazo[4,5-c]isoquinoline], in data set [1], the “fluorescence (observation in words)” value is given as “quenched the fluorescence fully” and the λex turned out to be 370 nm.
Take `CCN(CC)c1ccc(/C=C/c2nc3nc(-c4ccc(N(CC)CC)cc4)c(NC(C)(C)C)n3nc2C)cc1` [Compound 49, (E)-N-(tert-butyl)-6-(4-(diethylamino)phenyl)-3-(4-(diethylamino)styryl)-2-methylimidazo[1,2-b][1,2,4]triazin-7-amine]: in data set [1], the λex is 566 nm, the “Quantum Yield” value is listed as 0.45 and the λem is on record as 653 nm.
On the same counts, the results for `COc1ccc(-c2nc3cc(OC)ccn3c2N)cc1` [Compound 10at, 7-methoxy-2-(4-methoxyphenyl)imidazo[1,2-a]pyridin-3-amine] are 344 nm, 0.10 and 500 nm.
As for `COc1cc(OC)cc(-c2nc3ccccn3c2N)c1` [Compound 10d, 2-(3,5-dimethoxyphenyl)imidazo[1,2-a]pyridin-3-amine], in data set [1], the λex was found to be 344 nm; the “Quantum Yield” value is on record as 0.35; the λem is 473 nm and 478 nm.
As to `Nc1c(-c2ccc(N(c3ccccc3)c3ccccc3)cc2)nc2ccccn12` [Compound 10p, 2-(4-(diphenylamino)phenyl)imidazo[1,2-a]pyridin-3-amine], in data set [1], the λex was found to be 353 nm, the “Quantum Yield” value is on record as 0.34 and the λem is recorded as 471 nm.
As for `Cc1nn2c(NC(C)(C)C)c(-c3ccccc3)nc2nc1/C=C/c1ccccc1` [Compound 42, (E)-N-(tert-butyl)-2-methyl-6-phenyl-3-styrylimidazo[1,2-b][1,2,4]triazin-7-amine], in data set [1], the λex was found to be 453 nm, the “Quantum Yield” value was 0.11 and the λem was found to be 636 nm.
On the same counts, the results for `Nc1c(-c2ccc3ccccc3c2)nc2ccccn12` [Compound 10e, 2-(naphthalen-2-yl)imidazo[1,2-a]pyridin-3-amine] are 345 nm, 0.28 and 475 nm.
Taken in the same sequence, the figures for `Cc1nn2c(NC(C)(C)C)c(-c3ccc([N+](=O)[O-])cc3)nc2nc1/C=C/c1ccc([N+](=O)[O-])cc1` [Compound 45, (E)-N-(tert-butyl)-2-methyl-6-(4-nitrophenyl)-3-(4-nitrostyryl)imidazo[1,2-b][1,2,4]triazin-7-amine] were 505 nm, 0.11 and 655 nm.
Taken in the same sequence, the figures for `Nc1c(-c2ccc3ccccc3c2)nc2cccnn12` [Compound 10ab, 2-(naphthalen-2-yl)imidazo[1,2-b]pyridazin-3-amine] were 438 nm, 0.04 and 543 nm.
Take `CCN(CC)c1ccc(-c2nc3cc(-c4ccncc4)ccn3c2N)cc1` [Compound 10ay, 2-(4-(diethylamino)phenyl)-7-(pyridin-4-yl)imidazo[1,2-a]pyridin-3-amine]: in data set [1], the λex came out at 435 nm, the “Quantum Yield” value stood at 0.06 and the λem was found to be 581 nm.
Taken in the same sequence, the figures for `Cc1nn2c(NCc3ccccc3)c(-c3ccc4ccccc4c3)nc2nc1/C=C/c1ccc2ccccc2c1` [Compound 75, (E)-N-benzyl-2-methyl-6-(naphthalen-2-yl)-3-(2-(naphthalen-2-yl)vinyl)imidazo[1,2-b][1,2,4]triazin-7-amine] were 529 nm, 0.34 and 646 nm.
With `Nc1c(-c2ccccc2[N+](=O)[O-])nc2ccccn12` [Compound 10i, 2-(2-nitrophenyl)imidazo[1,2-a]pyridin-3-amine], the λex in data set [1] is given as 330 nm.
`COc1cc(-c2nc3cc(-c4ccncc4)ccn3c2N)cc(OC)c1OC` [Compound 10ax, 7-(pyridin-4-yl)-2-(3,4,5-trimethoxyphenyl)imidazo[1,2-a]pyridin-3-amine]: in data set [1], the λex turned out to be 392 nm, the “Quantum Yield” value came to 0.23 and the λem is on record as 545 nm.
Taken in the same sequence, the figures for `Cc1nn2c(NCc3ccccc3)c(-c3ccccc3)nc2nc1/C=C/c1ccccc1` [Compound 74, (E)-N-benzyl-2-methyl-6-phenyl-3-styrylimidazo[1,2-b][1,2,4]triazin-7-amine] were 498 nm, 0.24 and 636 nm.
On the same counts, the results for `COc1cc(-c2nc3c(nc4cccc(Br)n43)c3cc(OC)c(OC)c(OC)c23)cc(OC)c1OC` [Compound 16h, 8-bromo-2,3,4-trimethoxy-5-(3,4,5-trimethoxyphenyl)pyrido[2′,1′:2,3]imidazo[4,5-c]isoquinoline] are 265 nm, 0.002 and 553 nm.
On the same counts, the results for `COC(=O)c1ccn2c(N)c(-c3ccc4ccccc4c3)nc2c1` [Compound 10ai, methyl 3-amino-2-(naphthalen-2-yl)imidazo[1,2-a]pyridine-7-carboxylate] are 434 nm, 0.47 and 512 nm.
As for `N#Cc1ccc(-c2nc3ccc(N4CCCCC4)cn3c2N)cc1` [Compound 10av, 4-(3-amino-6-(piperidin-1-yl)imidazo[1,2-a]pyridin-2-yl)benzonitrile], in data set [1], the λex is listed as 375 nm, the “Quantum Yield” value amounted to 0.03 and the λem was 482 nm.
On to `COC(=O)c1cccc2nc(-c3cc(OC)cc(OC)c3)c(N)n12` [Compound 10x, methyl 3-amino-2-(3,5-dimethoxyphenyl)imidazo[1,2-a]pyridine-5-carboxylate], for which, in data set [1], the “fluorescence (observation in words)” value is recorded as “quenched fluorescence altogether” and the λex is given as 400 nm.
As for `CC(C)(C)Nc1c(-c2ccc(-c3nc4ccccn4c3NC(C)(C)C)cc2)nc2ccccn12` [Compound 10ap, 2,2′-(1,4-phenylene)bis(N-(tert-butyl)imidazo[1,2-a]pyridin-3-amine)], in data set [1], the λex came out at 344 nm, the “Quantum Yield” value is 0.30 and the λem is given as 458 nm.
On the same counts, the results for `COc1ccc(-c2nc3cccnn3c2N)c(OC)c1` [Compound 10ae, 2-(2,4-dimethoxyphenyl)imidazo[1,2-b]pyridazin-3-amine] are 433 nm, 0.02 and 555 nm.
In the case of `COc1cccc(/C=N/c2c(-c3cccc(OC)c3)c(C#N)c3ccccn23)c1` [Compound 14a, (E)-3-((3-methoxybenzylidene)amino)-2-(3-methoxyphenyl)indolizine-1-carbonitrile], the “fluorescence (observation in words)” value in data set [1] is given as “quenched fluorescence”.
